Experimental data taken from patent publication US10745355B2, “Anti-cancer compounds” (THE UNIVERSITY OF SYDNEY, priority 2015, dated 2020).

Legend:
[1] = tested on: U251; assay: Alamar blue cell viability assay, U251 cells; assay type: cell-based; conditions: Homo sapiens, U-251; 72 hours of treatment; mean±SEM, three independent experiments
Protocol: (§1) U87 and U251 cell lines were obtained from the European Collection of Cell Cultures (ECACC) through CellBank Australia. U87-EGFRvIII cell line was obtained from their lab of origin (Nishikawa et al., 1994, Proc Natl Acad Sci USA 91: 7727-7731) and tested for EGFR amplification and mutation by immunoblotting and flow cytometry. Cells were cultured in DMEM medium (Invitrogen by Life Technologies, Carlsbad, Calif., USA) supplemented with 10% FBS (Sigma-Aldrich) at 37° C. and 5% CO2. Primary gliomaspheres (RN1, classical; WK1, mesenchymal) were derived from glioblastoma specimens (Day et al., 2013, Cancers 5: 357-371; Day et al., 2013, Cancer Cell 23: 238-248), maintained in StemPro NSC serum-free media supplemented with EGF and FGF (all Life Technologies), and grown on matrigel-coated flasks (Pollard et al., 2009, Cell Stem Cell 4: 568-580).
Cell viability was determined using Alamar blue assay after 72 hours of treatment (Table 2). EC50 values were calculated using non-linear regression on Graph Pad Prism version 5. c Log P values calculated using ChemBioDraw Software. Results are mean±SEM from three independent experiments performed in triplicates.

[2] = target: BRK (Homo sapiens, UniProt Q13882); assay: Kinase profiling (ProQinase 33PanQinase Activity Assay), BRK; assay type: biochemical; conditions: read-out: residual activity, BRK
Protocol: (§2) The kinase profiling of compound 1-08 at 10 and 50 μM was performed by ProQinase GmbH (Freiburg, Germany). A radiometric protein kinase assay (^33PanQinase® Activity Assay) and the non-radiometric ADP-Glo™ Assay (Promega, Madison, Wis., USA) were used for measuring kinase activity of 387 protein kinases and 13 lipid kinases, respectively. The results are shown in Table 3 (only the top 10 kinases are listed, and the selectivity score describes the portion of kinases inhibited more than 50% in relation to all tested kinases).

[3] = target: LYN (Homo sapiens, UniProt P07948); assay: Kinase profiling (ProQinase 33PanQinase Activity Assay), LYN; assay type: biochemical; conditions: read-out: residual activity, LYN
Protocol: as §2

[4] = target: RON (Homo sapiens, UniProt Q04912); assay: Kinase profiling (ProQinase 33PanQinase Activity Assay), RON; assay type: biochemical; conditions: read-out: residual activity, RON
Protocol: as §2

[5] = target: SRC (Homo sapiens, UniProt P12931); assay: Kinase profiling (ProQinase 33PanQinase Activity Assay), SRC; assay type: biochemical; conditions: read-out: residual activity, SRC
Protocol: as §2

[6] = target: T1, (Homo sapiens, UniProt P43403); assay: Kinase profiling (ProQinase 33PanQinase Activity Assay), ZAP90; assay type: biochemical; conditions: read-out: residual activity, ZAP90
T1 sequence (P43403 1-619): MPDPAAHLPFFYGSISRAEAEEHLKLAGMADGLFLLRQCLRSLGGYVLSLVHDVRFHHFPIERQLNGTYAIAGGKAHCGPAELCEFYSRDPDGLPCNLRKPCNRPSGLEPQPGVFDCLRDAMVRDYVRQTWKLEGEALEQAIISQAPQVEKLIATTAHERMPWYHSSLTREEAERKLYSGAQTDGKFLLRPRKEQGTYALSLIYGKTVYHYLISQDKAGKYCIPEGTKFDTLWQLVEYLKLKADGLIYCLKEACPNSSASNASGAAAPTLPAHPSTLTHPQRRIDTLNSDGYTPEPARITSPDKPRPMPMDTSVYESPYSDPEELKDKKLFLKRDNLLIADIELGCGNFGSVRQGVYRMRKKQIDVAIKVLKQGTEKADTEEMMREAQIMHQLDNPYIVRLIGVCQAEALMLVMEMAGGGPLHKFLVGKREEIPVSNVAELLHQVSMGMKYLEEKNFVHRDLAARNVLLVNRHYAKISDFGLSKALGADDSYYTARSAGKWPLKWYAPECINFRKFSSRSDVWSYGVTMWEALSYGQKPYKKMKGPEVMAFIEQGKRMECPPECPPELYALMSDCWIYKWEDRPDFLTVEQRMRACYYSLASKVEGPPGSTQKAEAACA
Protocol: as §2

[7] = tested on: WK1 gliomaspheres (mesenchymal); assay: AlamarBlue cell viability assay, WK1 gliomaspheres; assay type: cell-based; conditions: 72 h of drug treatment, FIG. 11B
Protocol: FIGS. 11A-11B. Efficacy of SC-38 (referred to as “CMPD1”), compound 1-08 (referred to as “cmpd 13”), compound 1-18 (referred to as “cmpd 7”), and compound 1-38 (referred to as “cmpd 10”) in primary gliomaspheres representing two glioblastoma subtypes. (11A) RN1, classical, and (11B) WK1, mesenchymal. Cellular efficacy (EC50) of test compounds was determined using AlamarBlue cell viability assay after 72 h of drug treatment. Data are mean±SEM from 3 independent experiments performed in triplicate.
as §1
The effect of SC-38, and compounds 1-08, 1-18 and 1-38 in a cell viability assay employing patient-derived gliomaspheres was also investigated. RN1 gliomaspheres representing glioblastoma of the classical subtype were most responsive to the treatment (FIG. 11, where SC-38 is referred to as “CMPD1”, compound 1-08 is referred to as “compound 13”, compound 1-18 is referred to as “compound 7”, and compound 1-38 is referred to as “compound 10”).

[8] = tested on: U87; assay: Annexin-FITC/7-AAD apoptosis assay, U87 cells; assay type: cell-based; conditions: 48 hours treatment
Protocol: FIGS. 4A-4D. […] U87 (4A-4B) and U87vIII (4C-4D) cells were treated with SC-38 for 48 hours and stained with Annexin-FITC/7-AAD. Apoptotic cells were visualized using the MUSE cell analyzer (Millipore).
FIGS. 6A-6D. […] U87 (A B) (6A-6B) and U87vIII (6C-6D) cells were treated with compound 1-08 for 48 hours and stained with Annexin-FITC/7-AAD. Apoptotic cells were visualized using the MUSE cell analyzer (Millipore). Results are means±SEM from 3 independent experiments. One-way ANOVA followed by Dunnet post-test was used to calculate statistical significance (***P<0.001).
(§3) U87 (FIGS. 4, A-B) and U87vIII (FIG. 4, C-D) cells were treated with SC-38 for 48 hours and stained with Annexin-FITC/7-AAD. Apoptotic cells were visualized using the MUSE cell analyzer (Millipore). Results are means±SEM from 3 independent experiments. One-way ANOVA followed by Dunnet post-test was used to calculate statistical significance (**P<0.01, ***P<0.001)
as §3, with “6,” for “4,”, “compound 1-08” for “SC-38”, “three” for “3”, “(***P<0.001).” for “(**P<0.01, ***P<0.001)”

Chain of BRK (Q13882 whole entry): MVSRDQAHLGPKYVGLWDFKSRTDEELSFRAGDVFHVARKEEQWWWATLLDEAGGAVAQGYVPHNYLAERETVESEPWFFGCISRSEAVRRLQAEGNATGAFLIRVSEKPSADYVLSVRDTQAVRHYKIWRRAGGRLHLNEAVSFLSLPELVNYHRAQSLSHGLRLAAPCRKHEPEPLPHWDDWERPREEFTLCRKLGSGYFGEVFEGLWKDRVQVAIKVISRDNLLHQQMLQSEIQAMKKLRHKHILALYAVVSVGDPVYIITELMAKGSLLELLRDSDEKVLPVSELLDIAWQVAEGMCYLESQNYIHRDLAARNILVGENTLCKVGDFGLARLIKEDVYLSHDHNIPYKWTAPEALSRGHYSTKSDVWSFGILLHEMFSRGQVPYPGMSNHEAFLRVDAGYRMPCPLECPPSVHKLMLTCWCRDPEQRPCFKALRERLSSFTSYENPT
Chain of RON (Q04912 25-1400): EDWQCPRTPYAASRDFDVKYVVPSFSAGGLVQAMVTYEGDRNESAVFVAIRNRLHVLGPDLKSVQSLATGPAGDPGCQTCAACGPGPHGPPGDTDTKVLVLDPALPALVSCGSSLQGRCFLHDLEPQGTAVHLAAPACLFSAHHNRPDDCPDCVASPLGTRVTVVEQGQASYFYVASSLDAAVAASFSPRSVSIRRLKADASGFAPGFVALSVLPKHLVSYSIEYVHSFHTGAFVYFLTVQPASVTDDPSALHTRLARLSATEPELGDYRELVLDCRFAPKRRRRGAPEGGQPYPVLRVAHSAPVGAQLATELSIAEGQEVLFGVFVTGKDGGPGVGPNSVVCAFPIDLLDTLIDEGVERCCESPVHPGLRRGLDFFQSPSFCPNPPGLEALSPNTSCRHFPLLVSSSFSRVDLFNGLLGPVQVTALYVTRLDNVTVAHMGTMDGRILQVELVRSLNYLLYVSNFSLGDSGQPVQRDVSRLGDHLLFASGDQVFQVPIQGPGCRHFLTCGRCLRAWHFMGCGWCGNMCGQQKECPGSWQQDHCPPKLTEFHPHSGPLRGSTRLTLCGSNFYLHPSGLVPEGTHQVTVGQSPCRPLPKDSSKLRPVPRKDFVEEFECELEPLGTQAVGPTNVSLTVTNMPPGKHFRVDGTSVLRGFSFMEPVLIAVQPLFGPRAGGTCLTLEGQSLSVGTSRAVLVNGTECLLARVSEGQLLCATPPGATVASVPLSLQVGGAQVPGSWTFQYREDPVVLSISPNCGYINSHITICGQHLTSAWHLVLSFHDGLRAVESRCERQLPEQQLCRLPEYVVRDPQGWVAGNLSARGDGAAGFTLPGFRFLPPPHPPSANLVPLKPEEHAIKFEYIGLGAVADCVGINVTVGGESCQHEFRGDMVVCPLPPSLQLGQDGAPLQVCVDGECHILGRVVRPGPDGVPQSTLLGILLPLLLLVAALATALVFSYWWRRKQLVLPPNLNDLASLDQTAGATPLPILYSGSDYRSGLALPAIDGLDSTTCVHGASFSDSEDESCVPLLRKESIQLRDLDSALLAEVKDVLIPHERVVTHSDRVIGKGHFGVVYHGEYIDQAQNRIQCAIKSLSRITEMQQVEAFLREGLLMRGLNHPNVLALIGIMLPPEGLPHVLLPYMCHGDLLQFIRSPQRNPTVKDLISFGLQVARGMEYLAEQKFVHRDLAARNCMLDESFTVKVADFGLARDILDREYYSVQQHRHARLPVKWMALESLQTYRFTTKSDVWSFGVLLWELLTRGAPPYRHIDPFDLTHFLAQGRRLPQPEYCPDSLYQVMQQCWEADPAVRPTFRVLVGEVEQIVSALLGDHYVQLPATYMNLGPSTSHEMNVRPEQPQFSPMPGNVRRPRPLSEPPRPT
Chain of SRC (P12931 whole entry): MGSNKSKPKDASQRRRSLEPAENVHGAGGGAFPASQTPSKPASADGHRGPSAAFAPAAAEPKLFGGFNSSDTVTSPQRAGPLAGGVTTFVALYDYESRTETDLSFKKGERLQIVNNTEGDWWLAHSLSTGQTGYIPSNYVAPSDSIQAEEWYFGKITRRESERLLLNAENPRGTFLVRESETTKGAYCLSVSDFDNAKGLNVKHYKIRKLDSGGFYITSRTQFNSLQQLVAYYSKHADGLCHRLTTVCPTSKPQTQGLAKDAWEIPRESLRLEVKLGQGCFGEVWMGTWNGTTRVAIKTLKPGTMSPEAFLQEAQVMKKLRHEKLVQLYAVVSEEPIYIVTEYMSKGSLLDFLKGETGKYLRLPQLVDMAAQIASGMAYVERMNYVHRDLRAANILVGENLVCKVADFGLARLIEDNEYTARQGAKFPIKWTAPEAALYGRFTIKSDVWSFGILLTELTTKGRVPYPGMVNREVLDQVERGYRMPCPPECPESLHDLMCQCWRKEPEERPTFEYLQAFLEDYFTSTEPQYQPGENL
Chain of LYN (P07948 whole entry): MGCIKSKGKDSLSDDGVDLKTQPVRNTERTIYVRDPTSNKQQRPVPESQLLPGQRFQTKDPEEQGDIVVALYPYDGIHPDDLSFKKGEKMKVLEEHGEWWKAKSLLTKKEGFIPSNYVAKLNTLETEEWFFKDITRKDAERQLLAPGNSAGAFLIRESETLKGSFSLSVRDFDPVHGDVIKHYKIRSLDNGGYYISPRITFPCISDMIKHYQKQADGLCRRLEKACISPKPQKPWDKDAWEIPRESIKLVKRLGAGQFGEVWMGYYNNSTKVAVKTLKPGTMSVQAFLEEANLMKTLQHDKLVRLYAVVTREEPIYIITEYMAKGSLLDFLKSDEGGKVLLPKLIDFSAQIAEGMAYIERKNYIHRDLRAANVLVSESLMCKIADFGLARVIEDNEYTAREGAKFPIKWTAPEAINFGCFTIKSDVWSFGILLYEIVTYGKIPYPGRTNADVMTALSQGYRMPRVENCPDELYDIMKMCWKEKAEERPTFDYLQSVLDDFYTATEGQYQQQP

EC50 [1]: 0.98 ± 0.2 µM
remaining activity at 10 µM ([2]; 10 μM compound): 74%
remaining activity at 50 µM ([2]; 50 μM compound): 29%
remaining activity at 10 µM ([3]; 10 μM compound): 87%
remaining activity at 50 µM ([3]; 50 μM compound): 21%
remaining activity at 10 µM ([4]; 10 μM compound): 84%
remaining activity at 50 µM ([4]; 50 μM compound): 18%
remaining activity at 10 µM ([5]; 10 μM compound): 57%
remaining activity at 50 µM ([5]; 50 μM compound): 21%
remaining activity at 10 µM ([6]; 10 μM compound): 60%
remaining activity at 50 µM ([6]; 50 μM compound): 14%
Structure (SMILES): O=C(CCCc1ccc(-c2cnc3ccccc3c2)cc1)Nc1ccc(O)cc1 [Compound 1-08, N-(4-hydroxyphenyl)-4-(4-(quinolin-3-yl)phenyl)butanamide]
EC50 [7]: 3.82 µM
apoptosis, U87 [8]: induced apoptosis
